Assay results from patent US9464064B2, “HCV helicase inhibitors and methods of use thereof” (University of Kansas, priority 2011, dated 2016).

Target: T1, HCV NS3 helicase NS3h_1b(con1) (Hepatitis C virus genotype 1b, UniProt Q9WMX2)
T1 construct: truncated C-terminally His-tagged NS3 proteins lacking the N-terminal protease, called NS3h; His-tag (C); made in house
Assay: MBHA screen of NCI mechanistic set library at 20 μM (percent inhibition, compound interference)
Format: biochemical
Conditions: compounds at 20 μM; for Inh. (%) (Inhibition): calculated from Equation 1
Procedure: All molecular beacon-based helicase assays (MBHAs) were performed according to known methods (Belon & Frick (2008) supra; Belon & Frick (2009) supra). […] In each flat, black 384-well plate, 56 compounds were tested, in triplicate, along with three negative controls (DMSO only), three positive controls (500 nM dT20), and two wells with no enzyme. Fluorescence was read before ATP (F0) addition and 30 minutes after ATP was added to 1 mM (F30) using a Tecan Infinite M200 fluorescence microplate reader with excitation and emission wavelengths set to 643 and 670 nm, respectively. Percent inhibition was calculated with equation 1, and compound interference in the MBHA was calculated with equation 2.
In Equations 1 and 2, Fc0 is the fluorescence of the reactions containing the test compound before adding ATP, Fc30 is the fluorescence of the test compound reaction 30 minutes after adding ATP. F(−)0 is the average of three DMSO-only negative control reactions before adding ATP and F(−)30 is the average of three DMSO-only reactions 30 minutes after adding ATP.
To identify HCV helicase inhibitors, the MBHA was first used to screen the National Cancer Institute Developmental Therapeutics Program's mechanistic set library. In total, 827 compounds (at 20 μM) were screened using a MBHA with a DNA substrate (Table 1). Compounds were ranked by their ability to inhibit HCV helicase-catalyzed DNA unwinding as calculated from Equation 1.
Compound interference in the MBHA was evaluated by comparing the fluorescence of reactions containing each compound to the fluorescence of DMSO-only negative controls before ATP was added.

[1] = assay interference calculated with Equation 2 (fluorescence vs DMSO-only controls before ATP)
[2] = MBHA with DNA substrate, assay interference calculated with Equation 2

T1 sequence (Q9WMX2 1192-1657): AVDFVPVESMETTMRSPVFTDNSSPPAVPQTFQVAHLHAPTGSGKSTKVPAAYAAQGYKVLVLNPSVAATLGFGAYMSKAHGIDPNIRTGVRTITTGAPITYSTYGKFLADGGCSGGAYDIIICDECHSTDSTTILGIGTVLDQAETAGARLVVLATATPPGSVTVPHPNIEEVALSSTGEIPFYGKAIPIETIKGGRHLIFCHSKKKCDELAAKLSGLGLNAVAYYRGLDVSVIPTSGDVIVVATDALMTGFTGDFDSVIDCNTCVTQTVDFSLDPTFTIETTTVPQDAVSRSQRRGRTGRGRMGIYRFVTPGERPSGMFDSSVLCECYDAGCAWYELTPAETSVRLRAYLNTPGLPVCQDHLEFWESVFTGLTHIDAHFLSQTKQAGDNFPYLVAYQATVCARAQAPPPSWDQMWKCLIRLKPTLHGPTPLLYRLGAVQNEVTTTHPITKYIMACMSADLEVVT

Inh. (%) (Inhibition) (MBHA with a DNA substrate)	Int.* (Ratio) (Interference) [1]	Int.* (Ratio) (Interference) [2]	Inh. (%) (Inhibition) (MBHA with DNA substrate)	Compound
−21.0	0.94			CN(C)C(=S)/N=c1\ss/c(=N\C(=S)N(C)C)n1-c1ccc2c(c1)OCO2 [Compound 622589]
		1.03	21.8	CN1CCN(CN2C(=O)C3C4C=CC(C3C2=O)C2C3C(=O)N(CN5CCN(C)CC5)C(=O)C3C42)CC1 (centres unmarked) [Compound 361813]
		1.06	1.6	Clc1cc2nc[nH]c2cc1Cl [Compound 326397]
−2.9	1.08			O=NN(CCCl)C(=O)NCc1ccc[n+]([O-])c1 [Compound 307454]
		0.95	4.3	COc1cc2c(c(O)c1OC)-c1c(cc(OC)c(OC)c1OC)C[C@@H](C)[C@@H](C)C2 [Compound 330515]
		0.97	−1.8	NC1N=C(c2ccc(Cl)cc2)C2=C(N1)c1ccccc1CC2 (centres unmarked) [Compound 682864]
−28.3	1.07			COc1ccc(/C=C/c2cc(O)cc(O[C@@H]3O[C@H](CO)[C@@H](O)[C@H](O)[C@H]3O)c2)cc1O [Compound 43321]
		1.10	0.0	O=C1NC(=O)[C@H]2[C@H]3C=C[C@@H]([C@@H]12)[C@@H]1[C@H]2C(=O)NC(=O)[C@H]2[C@H]31 [Compound 284356]
		0.98	−11.6	Cl.Cl.Nc1ccc(OCCCc2c(-c3ccccc3)nc(N)[nH]c2=O)cc1 [Compound 100856]
−7.0	0.88			Oc1cc(-n2cccn2)c(O)cc1-n1cccn1 [Compound 645987]
		1.07	5.9	Nc1nncs1 [Compound 4728]
		0.96	−18.4	Clc1ccc(-c2c(C3=NCCCN3)nnn2-c2ccc(Cl)cc2)cc1 [Compound 645033]
		0.95	15.2	O=C(ON=C1c2ccccc2C(Br)C(Br)c2ccccc21)c1ccccc1 (centres unmarked) [Compound 670140]
		1.06	−2.3	Cc1ccc(NC(=O)/C=C/c2ccccc2)c(C)c1 [Compound 191389]
		1.16	−10.4	Cc1cc2c(cc1C)[n+](=O)c(C(=O)/C=C/c1ccccc1[N+](=O)[O-])c(C)n2[O-] [Compound 621486]
		0.93	−11.6	CC(C)C1=CC2=CC[C@@H]3[C@](C)(CCC[C@@]3(C)C(=O)O)[C@H]2CC1 [Compound 25149]
		0.91	0.8	N#CC1(C#N)C2C=CC(c3coc4cccc2c34)C1(C#N)C#N (centres unmarked) [Compound 629301]
		0.29	5.0	CC(=O)O.Cc1c2cc[n+](CCN3CCCCC3)cc2c(C)c2c1[nH]c1ccc(O)cc12 [Compound 311153]
		1.11	−0.8	Nc1ncnc2c1ncn2[C@@H]1O[C@H](CO)C[C@H]1O [Compound 63984]

Compound	Inh. (%) (Inhibition) (MBHA with a DNA substrate)	Int.* (Ratio) (Interference) [1]	Int.* (Ratio) (Interference) [2]	Inh. (%) (Inhibition) (MBHA with DNA substrate)
COC1CC(OC2CCC3(C=O)C4CCC5(C)C(C6=CC(=O)OC6)CCC5(O)C4CCC3(O)C2)OC(C)C1OC1OC(CO)C(O)C(O)C1O (centres unmarked) [Compound 4320]			0.95	−12.6
CC(C)OP(=O)(OC(C)C)C(N(C)C)P(=O)(OC(C)C)OC(C)C.[Cl][Sn]([Cl])([Cl])[c]1ccccc1 [Compound 645567]			1.04	2.4
COc1ccc(O)c2c(=O)c3c(OC)cc4c(c3oc12)[C@@H]1C=CO[C@@H]1O4 [Compound 178249]			0.87	2.4
